Measured values: PMC4104761, “Identification of a novel lytic peptide for the treatment of solid tumours” (Genes & Cancer, 2014)

How the values were obtained:
U87 cells = assay: Comparison of peptide variants by crystal violet staining and light microscopy
Text: The sizes of the resulting in silico peptides varied from 10 to 30 amino acids. In order to facilitate their cellular internalisation, a TAT-HIV sequence was attached to the C-terminal ends. All peptides were […]. The peptide library was produced by Cambridge Peptides (Cambridge, UK). The peptides were then screened with the MTT (3-(4,5-dimethylthiazol-2-yl)-2,5-diphenyltetrazolium bromide) assay on U87 human glioma cells. Cellular morphology after peptide exposure was assessed by crystal violet staining and light microscopy. All experiments were performed in triplicate.
To increase the stability of the peptide, two further sub-formulations of the original formula (L-aa, containing only L-amino acids) were created: D-aa (retro inversed, (ri)), a peptide comprised of a backward sequence of the original in silico formula, yet made up solely of D-amino acids and an analogue peptide to original in silico peptide formula, comprised of D-amino acids. D-amino acids are highly resistant to protease mediated degradation and have a low immunogenic response. The respective peptide variants were tested in the following concentrations: 7.5, 10, 15, 20 and 25 µg/ml and incubated for 3 hours.

[1] = test system: osteosarcoma cell lines (U2OS, SaOs2); assay: LIVE/DEAD Viability/Cytotoxicity assay; type: cell-based, human; details: morphometric evaluation (Calcein), 35 µg Cypep-1/ml, 3 hours
Description: In order to visualise and quantify the cytotoxic action of Cypep-1 simultaneously, the LIVE/DEAD® Viability/Cytotoxicity Kit was employed according to the manufacturers instructions on monolayers of 30 000 cells in sterile 24 multi well dishes (Nunc™, Roskilde, Denmark), using the selected human osteosarcoma cell lines U2OS and SaOs2 as well as the two human fibroblast cell lines HFF1 (foreskin) and 142Br (skin).
The monolayer cultures were incubated with Cypep-1 for a period of 3 hours in concentrations ranging from 2.5 µg to 35 µg/ml. The cells were observed using an inverted fluorescence microscope (Nikon Eclipse 2000E, Tokyo, Japan) equipped with FITC (green fluorescence) and TRITC (red fluorescence) filter optics. The fluorescent cells were then photographed at a 10x magnification. The proportions of viable cells (live cells showing green fluorescence due to the presence of Calcein) and dead cells (red fluorescent due to the membrane penetration of Ethidium-Homodimer-1) were quantified using a Lucia G Morphometry System, Version 4.71 (Laboratory Imaging, Prague, Czech Republic).

## YGRKKRRQRRRGKTLRVAKAIYKRYIE [Cypep-1]
U87 cells; U87 cells, 7.5, 10, 15, 20 and 25 µg/ml, 3 hours incubation
  cytotoxic effect / potency by crystal violet staining: more potent than the parent L- amino acid formula
U87 cells; U87 monolayer, 15 µg/ml, 3 hours exposure
  monolayer appearance by light microscopy: extensive cell loss
[1]
  average surviving fraction: lower than 5%
